Columns and labels:
Assay type in all cases: in vivo
corn (Zea mays) = assay: Test A postemergence, corn; conditions: postemergence, 0 to 100 scale, 0 is no effect, 100 is complete control, approximately 10 days
Summary of the method: (§1)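 Ratings run 0–100, where 100 is complete control, and were scored visually against untreated plants about 10 days after treatment under greenhouse conditions. Formulated chemicals were sprayed either onto the soil surface after seeding (preemergence) or onto one- to two-leaf seedlings 2–10 cm high (postemergence).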

[1] = system: wheat (Triticum aestivum); assay: Test A postemergence, wheat; conditions: postemergence, 0 to 100 scale, 0 is no effect, 100 is complete control, approximately 10 days
Summary of the method: as §1

[2] = system: foxtail, giant (giant foxtail, Setaria faberii); assay: Test A postemergence, giant foxtail; conditions: postemergence, 0 to 100 scale, 0 is no effect, 100 is complete control, approximately 10 days
Summary of the method: as §1

rice (Oryza sativa) = assay: Test B flooded paddy test, rice; conditions: 250 g ai/ha, Flood; visual rating after 13 to 15 days; scale 0 to 100, 0 is no effect, 100 is complete control
Summary of the method: (§2)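 Seedlings at the 2-leaf stage are flooded to 3 cm and treated via the paddy water. Greenhouse plants are compared with controls after 13 to 15 days and given a 0 (no effect) to 100 (complete control) rating.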

[3] = system: ryegrass, Italian (Italian ryegrass, Lolium multiflorum); assay: Test A postemergence, Italian ryegrass; conditions: postemergence, 0 to 100 scale, 0 is no effect, 100 is complete control, approximately 10 days
Summary of the method: as §1

[4] = system: ducksalad (Heteranthera limosa); assay: Test B flooded paddy test, ducksalad; conditions: 250 g ai/ha, Flood; visual rating after 13 to 15 days; scale 0 to 100, 0 is no effect, 100 is complete control
Summary of the method: as §2

[5] = system: ragweed (common ragweed, Ambrosia elatior); assay: Test A postemergence, ragweed; conditions: postemergence, 0 to 100 scale, 0 is no effect, 100 is complete control, approximately 10 days
Summary of the method: as §1

[6] = system: pigweed (Amaranthus retroflexus); assay: Test A preemergence, pigweed; conditions: Preemergence, 0 to 100 scale (0 no effect, 100 complete control)
Summary of the method: as §1

[7] = system: ragweed (common ragweed, Ambrosia elatior); assay: Test A preemergence, ragweed; conditions: Preemergence, 0 to 100 scale (0 no effect, 100 complete control)
Summary of the method: as §1

[8] = system: sedge, umbrella (small-flower umbrella sedge, Cyperus difformis); assay: Test B flooded paddy test, umbrella sedge; conditions: 250 g ai/ha, Flood; visual rating after 13 to 15 days; scale 0 to 100, 0 is no effect, 100 is complete control
Summary of the method: as §2

[9] = system: ryegrass, Italian (Italian ryegrass, Lolium multiflorum); assay: Test A preemergence, Italian ryegrass; conditions: Preemergence, 0 to 100 scale (0 no effect, 100 complete control)
Summary of the method: as §1

[10] = system: barnyardgrass (Echinochloa crus-galli); assay: Test A preemergence, barnyardgrass; conditions: Preemergence, 0 to 100 scale (0 no effect, 100 complete control)
Summary of the method: as §1

[11] = system: barnyardgrass (Echinochloa crus-galli); assay: Test A postemergence, barnyardgrass; conditions: postemergence, 0 to 100 scale, 0 is no effect, 100 is complete control, approximately 10 days
Summary of the method: as §1

[12] = system: barnyardgrass (Echinochloa crus-galli); assay: Test B flooded paddy test, barnyardgrass; conditions: 250 g ai/ha, Flood; visual rating after 13 to 15 days; scale 0 to 100, 0 is no effect, 100 is complete control
Summary of the method: as §2

kochia (Kochia scoparia) [13] = assay: Test A preemergence, kochia; conditions: Preemergence, 0 to 100 scale (0 no effect, 100 complete control)
Summary of the method: as §1

[14] = system: galium (catchweed bedstraw, Galium aparine); assay: Test A postemergence, galium; conditions: postemergence, 0 to 100 scale, 0 is no effect, 100 is complete control, approximately 10 days
Summary of the method: as §1

[15] = system: blackgrass (Alopecurus myosuroides); assay: Test A postemergence, blackgrass; conditions: postemergence, 0 to 100 scale, 0 is no effect, 100 is complete control, approximately 10 days
Summary of the method: as §1

kochia (Kochia scoparia) [16] = assay: Test A postemergence, kochia; conditions: postemergence, 0 to 100 scale, 0 is no effect, 100 is complete control, approximately 10 days
Summary of the method: as §1

[17] = system: foxtail, giant (giant foxtail, Setaria faberii); assay: Test A preemergence, giant foxtail; conditions: Preemergence, 0 to 100 scale (0 no effect, 100 complete control)
Summary of the method: as §1

[18] = system: pigweed (Amaranthus retroflexus); assay: Test A postemergence, pigweed; conditions: postemergence, 0 to 100 scale, 0 is no effect, 100 is complete control, approximately 10 days
Summary of the method: as §1

Compound: Fc1cccc(Oc2ncc(Cl)cn2)c1OC/C=C/C(F)(F)F [Compound 25]
- Plant response rating, Corn (corn (Zea mays); 125 g ai/ha): 10
- Plant response rating, Corn (corn (Zea mays); 500 g ai/ha): 20
- Plant response rating, Wheat ([1]; 125 g ai/ha): 0
- Plant response rating, Wheat ([1]; 500 g ai/ha): 20
- Plant response rating, Foxtail, Giant ([2]; 125 g ai/ha): 30
- Plant response rating, Foxtail, Giant ([2]; 500 g ai/ha): 80
- Plant response rating, Rice (rice (Oryza sativa)): 0
- Plant response rating, Ryegrass, Italian ([3]; 125 g ai/ha): 0
- Plant response rating, Ryegrass, Italian ([3]; 500 g ai/ha): 70
- Plant response rating, Ducksalad [4]: 100
- Plant response rating, Ragweed ([5]; 125 g ai/ha): 0
- Plant response rating, Ragweed ([5]; 500 g ai/ha): 0
- Plant response rating, Pigweed ([6]; 125 g ai/ha): 100
- Plant response rating, Pigweed ([6]; 500 g ai/ha): 100
- Plant response rating, Ragweed ([7]; 125 g ai/ha): 0
- Plant response rating, Ragweed ([7]; 500 g ai/ha): 20
- Plant response rating, Sedge, Umbrella [8]: 75
- Plant response rating, Ryegrass, Italian ([9]; 125 g ai/ha): 60
- Plant response rating, Ryegrass, Italian ([9]; 500 g ai/ha): 100
- Plant response rating, Barnyardgrass ([10]; 125 g ai/ha): 90
- Plant response rating, Barnyardgrass ([10]; 500 g ai/ha): 100
- Plant response rating, Barnyardgrass ([11]; 125 g ai/ha): 40
- Plant response rating, Barnyardgrass ([11]; 500 g ai/ha): 90
- Plant response rating, Barnyardgrass [12]: 0
- Plant response rating, Kochia (kochia (Kochia scoparia) [13]; 125 g ai/ha): 30
- Plant response rating, Kochia (kochia (Kochia scoparia) [13]; 500 g ai/ha): 100
- Plant response rating, Galium ([14]; 125 g ai/ha): 50
- Plant response rating, Galium ([14]; 500 g ai/ha): 100
- Plant response rating, Blackgrass ([15]; 125 g ai/ha): 20
- Plant response rating, Blackgrass ([15]; 500 g ai/ha): 80
- Plant response rating, Kochia (kochia (Kochia scoparia) [16]; 125 g ai/ha): 90
- Plant response rating, Kochia (kochia (Kochia scoparia) [16]; 500 g ai/ha): 100
- Plant response rating, Foxtail, Giant ([17]; 125 g ai/ha): 100
- Plant response rating, Foxtail, Giant ([17]; 500 g ai/ha): 100
- Plant response rating, Pigweed ([18]; 125 g ai/ha): 50
- Plant response rating, Pigweed ([18]; 500 g ai/ha): 70

Compound: N#Cc1cccc(Oc2ncc(Cl)cn2)c1OCC(=O)CCC(F)(F)F [Compound 62]
- Plant response rating, Corn (corn (Zea mays); 31 g ai/ha): 0
- Plant response rating, Corn (corn (Zea mays); 125 g ai/ha): 0
- Plant response rating, Wheat ([1]; 31 g ai/ha): 0
- Plant response rating, Wheat ([1]; 125 g ai/ha): 0
- Plant response rating, Foxtail, Giant ([2]; 31 g ai/ha): 0
- Plant response rating, Foxtail, Giant ([2]; 125 g ai/ha): 0
- Plant response rating, Rice (rice (Oryza sativa)): 0
- Plant response rating, Ryegrass, Italian ([3]; 31 g ai/ha): 0
- Plant response rating, Ryegrass, Italian ([3]; 125 g ai/ha): 0
- Plant response rating, Ducksalad [4]: 0
- Plant response rating, Ragweed ([5]; 31 g ai/ha): 0
- Plant response rating, Ragweed ([5]; 125 g ai/ha): 0
- Plant response rating, Pigweed ([6]; 31 g ai/ha): 0
- Plant response rating, Pigweed ([6]; 125 g ai/ha): 0
- Plant response rating, Ragweed ([7]; 31 g ai/ha): 0
- Plant response rating, Ragweed ([7]; 125 g ai/ha): 0
- Plant response rating, Sedge, Umbrella [8]: 0
- Plant response rating, Ryegrass, Italian ([9]; 31 g ai/ha): 0
- Plant response rating, Ryegrass, Italian ([9]; 125 g ai/ha): 0
- Plant response rating, Barnyardgrass ([10]; 31 g ai/ha): 0
- Plant response rating, Barnyardgrass ([10]; 125 g ai/ha): 0
- Plant response rating, Barnyardgrass ([11]; 31 g ai/ha): 0
- Plant response rating, Barnyardgrass ([11]; 125 g ai/ha): 0
- Plant response rating, Barnyardgrass [12]: 0
- Plant response rating, Kochia (kochia (Kochia scoparia) [13]; 31 g ai/ha): 0
- Plant response rating, Kochia (kochia (Kochia scoparia) [13]; 125 g ai/ha): 0
- Plant response rating, Galium ([14]; 31 g ai/ha): 0
- Plant response rating, Galium ([14]; 125 g ai/ha): 0
- Plant response rating, Blackgrass ([15]; 31 g ai/ha): 0
- Plant response rating, Blackgrass ([15]; 125 g ai/ha): 0
- Plant response rating, Kochia (kochia (Kochia scoparia) [16]; 31 g ai/ha): 0
- Plant response rating, Kochia (kochia (Kochia scoparia) [16]; 125 g ai/ha): 0
- Plant response rating, Foxtail, Giant ([17]; 31 g ai/ha): 0
- Plant response rating, Foxtail, Giant ([17]; 125 g ai/ha): 0
- Plant response rating, Pigweed ([18]; 31 g ai/ha): 0
- Plant response rating, Pigweed ([18]; 125 g ai/ha): 0

Compound: N#Cc1cccc(Oc2ncc(Cl)cn2)c1OCc1ccc(C(F)(F)F)cc1 [Compound 20]
- Plant response rating, Corn (corn (Zea mays); 125 g ai/ha): 10
- Plant response rating, Corn (corn (Zea mays); 500 g ai/ha): 20
- Plant response rating, Wheat ([1]; 125 g ai/ha): 10
- Plant response rating, Wheat ([1]; 500 g ai/ha): 10
- Plant response rating, Foxtail, Giant ([2]; 125 g ai/ha): 10
- Plant response rating, Foxtail, Giant ([2]; 500 g ai/ha): 30
- Plant response rating, Rice (rice (Oryza sativa)): 0
- Plant response rating, Ryegrass, Italian ([3]; 125 g ai/ha): 0
- Plant response rating, Ryegrass, Italian ([3]; 500 g ai/ha): 20
- Plant response rating, Ducksalad [4]: 0
- Plant response rating, Ragweed ([5]; 125 g ai/ha): 20
- Plant response rating, Ragweed ([5]; 500 g ai/ha): 30
- Plant response rating, Pigweed ([6]; 125 g ai/ha): 30
- Plant response rating, Pigweed ([6]; 500 g ai/ha): 100
- Plant response rating, Ragweed ([7]; 125 g ai/ha): 0
- Plant response rating, Ragweed ([7]; 500 g ai/ha): 0
- Plant response rating, Sedge, Umbrella [8]: 0
- Plant response rating, Ryegrass, Italian ([9]; 125 g ai/ha): 0
- Plant response rating, Ryegrass, Italian ([9]; 500 g ai/ha): 20
- Plant response rating, Barnyardgrass ([10]; 125 g ai/ha): 20
- Plant response rating, Barnyardgrass ([10]; 500 g ai/ha): 30
- Plant response rating, Barnyardgrass ([11]; 125 g ai/ha): 10
- Plant response rating, Barnyardgrass ([11]; 500 g ai/ha): 30
- Plant response rating, Barnyardgrass [12]: 0
- Plant response rating, Kochia (kochia (Kochia scoparia) [13]; 125 g ai/ha): 0
- Plant response rating, Kochia (kochia (Kochia scoparia) [13]; 500 g ai/ha): 50
- Plant response rating, Galium ([14]; 125 g ai/ha): 30
- Plant response rating, Galium ([14]; 500 g ai/ha): 80
- Plant response rating, Blackgrass ([15]; 125 g ai/ha): 0
- Plant response rating, Blackgrass ([15]; 500 g ai/ha): 20
- Plant response rating, Kochia (kochia (Kochia scoparia) [16]; 125 g ai/ha): 50
- Plant response rating, Kochia (kochia (Kochia scoparia) [16]; 500 g ai/ha): 100
- Plant response rating, Foxtail, Giant ([17]; 125 g ai/ha): 90
- Plant response rating, Foxtail, Giant ([17]; 500 g ai/ha): 100
- Plant response rating, Pigweed ([18]; 125 g ai/ha): 90
- Plant response rating, Pigweed ([18]; 500 g ai/ha): 90

Reference: US10485235B2, “Aryloxypyrimidinyl ethers as herbicides” (FMC Corporation, priority 2015, dated 2019)
